{
  "source": "patent US11007167B2",
  "about": "“Methods of treating multiple sclerosis” (Biogen MA Inc., priority 2014, dated 2021)",
  "key": {"JCV": {"tested_on": "JCV", "details": "literature report; cited from earlier work"}, "MS patients [1]": {"tested_on": "MS patients", "assay": "Absolute lymphocyte count (ALC) profiles in DMF-treated MS patients (Phase 2b, DEFINE, CONFIRM, ENDORSE)", "format": "in vivo, human", "method": "(§1) The Phase 2b study, DEFINE, and CONFIRM were multicenter, randomized, double-blind, placebo-controlled, parallel-group clinical trials of DMF as monotherapy for RRMS.\nThe Phase 2b study was 12 months in duration, including a 6-month placebo-controlled part (Part 1) and a 6-month uncontrolled safety extension part (Part 2). During Part 1, patients were randomized equally to DMF 120 mg once daily (QD), 120 mg three times daily (TID), 240 mg TID, or placebo.\n(§2) DEFINE and CONFIRM were 2 years in duration. Patients were randomized equally to DMF 240 mg twice daily (BID), 240 mg TID, or matching placebo.\nENDORSE is a multicenter, parallel-group, dose-blinded extension of DEFINE/CONFIRM with up to 8 additional years of follow-up.\nIn the Phase 2b study, blood was collected every 4 weeks.\nIn DEFINE and CONFIRM, blood was collected every 4 weeks for the first 3 months and every 12 weeks thereafter, and within 1 month after study withdrawal or study completion if not continuing in the extension study.\nIn ENDORSE, blood was collected at baseline and every 12 weeks thereafter\nALCs were graded per Common Terminology Criteria for Adverse Events (CTCAE; Table 9).^9\nData from DEFINE and CONFIRM after subjects switched to alternative MS treatment were excluded.\nData from the 6-month uncontrolled safety extension of the Phase 2b study were included."}, "patient with MS": {"tested_on": "patient with MS", "assay": "Occurrence of progressive multifocal leukoencephalopathy (PML) in treated MS patients", "details": "prolonged lymphopenia"}, "MS patients [2]": {"tested_on": "MS patients", "assay": "Serious infections by worst post-baseline CTC grade (Phase 2b, DEFINE, CONFIRM, ENDORSE)", "format": "in vivo, human", "source_text": "The Phase 2b study, […], and CONFIRM were multicenter, randomized, double-blind, placebo-controlled, parallel-group clinical trials of DMF as monotherapy for RRMS. ALCs were graded per Common Terminology Criteria for Adverse Events (CTCAE; Table 9).^9"}, "patients with RRMS [3]": {"tested_on": "patients with RRMS", "assay": "Annualized relapse rate / clinical efficacy in DEFINE and CONFIRM", "format": "in vivo, human", "details": "DMF 240 mg BID; for Rate ratio (95% CI) for adjusted ARR for DMF versus placebo: 2 years", "source_text": "FIGS. 4A-4B depict reduction in ARR at 2 years in DEFINE (FIG. 4A) and CONFIRM (FIG. 4B) in patients in the DMF BID group with lymphopenia (at least 1 ALC less than LLN) or without lymphopenia (all ALCs greater than or equal to LLN) compared with all patients in placebo group. ARR=annualized relapse rate; CI=confidence interval. ^aDMF is delayed-release DMF (also known as gastro-resistant DMF, and as TECFIDERA®). ^bBased on negative binomial regression, adjusted for study, baseline EDSS (≤2.0 vs >2.0), baseline age (<40 vs ≥40), region, and number of relapses in the 1 year prior to study entry.\nas §1, §2"}, "patients with RRMS [4]": {"tested_on": "patients with RRMS", "details": "DEFINE Phase 3 study; after two years of treatment; cited from earlier work"}, "healthy volunteer": {"tested_on": "healthy volunteer", "assay": "Healthy volunteer study: aspirin prior to DMF dosing (flushing)", "format": "in vivo, human", "details": "325 mg non-enteric coated aspirin 30 minutes prior to DMF dosing", "method": "In a specific embodiment, a NSAID (e.g., aspirin) is administered concurrently, before, and/or after administration of the fumarate (e.g., DMF). […] Some subjects who experience flushing with gastrointestinal side effects may reduce the dose to 120 mg DMF BID temporarily. Within a month, the effective dose of 240 mg DMF BID or 240 mg DMF TID should be resumed."}, "[5]": {"details": "All ALCs ≥ 500/mm^3 within the first 1 year"}, "[6]": {"details": "All ALCs ≥ 500/mm^3 within the first 6 months"}, "[7]": {"details": "All ALCs ≥ 800/mm^3 within the first 1 year"}, "[8]": {"details": "All ALCs ≥ 800/mm^3 within the first 6 months"}, "[9]": {"details": "At least 1 ALC < 500/mm^3 (row r11) within the first 1 year"}, "[10]": {"details": "At least 1 ALC < 500/mm^3 (row r12) within the first 1 year"}, "[11]": {"details": "At least 1 ALC < 500/mm^3 (row r12) within the first 6 months"}, "[12]": {"details": "percentage of the number with worst post-baseline count in that grade"}},
  "note": "Entries after “also recorded” stand apart in the source; their conditions may differ. Where a name gives a salt, the structure may show the parent alone.",
  "data": [
    {"compound": "CCCCCCCCCCCCCCCCOCCCOP(=O)(O)CO[C@H](CO)Cn1ccc(N)nc1=O", "note": "[CMX001, Hexadecyloxypropyl-Cidofovir]", "values": [
      {"measurement": "Effect on JCV replication", "setting": "JCV", "result": "suppress JVC by inhibiting viral DNA replication"}
    ]},
    {"compound": "COC(=O)/C=C/C(=O)OC", "note": "[DMF, dimethyl fumarate]", "values": [
      {"measurement": "ALCs after discontinuation of treatment (following final dose)", "setting": "MS patients [1]; 9 patients with ALCs < 500 cells/μL for at least 6 months who discontinued or completed the study", "result": "ALCs generally increased; also recorded: All 9 patients showed increases in ALCs; also recorded: evidence of ALC improvement"},
      {"measurement": "Patients who subsequently developed ALCs < 500/mm^3 persisting ≥ 6 months at any time, %", "setting": "MS patients [1]; [5]", "result": "(0.7) %"},
      {"measurement": "Patients who subsequently developed ALCs < 500/mm^3 persisting ≥ 6 months at any time, n/N", "setting": "MS patients [1]; [5]", "result": "16/2409"},
      {"measurement": "Patients who subsequently developed ALCs < 500/mm^3 persisting ≥ 6 months at any time, %", "setting": "MS patients [1]; [6]", "result": "(1.5) %"},
      {"measurement": "Patients who subsequently developed ALCs < 500/mm^3 persisting ≥ 6 months at any time, n/N", "setting": "MS patients [1]; [6]", "result": "37/2446"},
      {"measurement": "Patients who subsequently developed ALCs < 500/mm^3 persisting ≥ 6 months at any time, %", "setting": "MS patients [1]; [7]", "result": "(0) %"},
      {"measurement": "Patients who subsequently developed ALCs < 500/mm^3 persisting ≥ 6 months at any time, n/N", "setting": "MS patients [1]; [7]", "result": "0/2050"},
      {"measurement": "Patients who subsequently developed ALCs < 500/mm^3 persisting ≥ 6 months at any time, %", "setting": "MS patients [1]; [8]", "result": "(0.4) %"},
      {"measurement": "Patients who subsequently developed ALCs < 500/mm^3 persisting ≥ 6 months at any time, n/N", "setting": "MS patients [1]; [8]", "result": "9/2219"},
      {"measurement": "Patients who subsequently developed ALCs < 500/mm^3 persisting ≥ 6 months at any time, n/N", "setting": "MS patients [1]; All ALCs ≥ LLN within the first 1 year of treatment", "result": "0/1876"},
      {"measurement": "Patients who subsequently developed ALCs < 500/mm^3 persisting ≥ 6 months at any time, n/N", "setting": "MS patients [1]; All ALCs ≥ LLN within the first 6 months of treatment", "result": "3/2083"},
      {"measurement": "Patients who subsequently developed ALCs < 500/mm^3 persisting ≥ 6 months at any time, %", "setting": "MS patients [1]; [9]", "result": "(17) %"},
      {"measurement": "Patients who subsequently developed ALCs < 500/mm^3 persisting ≥ 6 months at any time, n/N", "setting": "MS patients [1]; [9]", "result": "47/420"},
      {"measurement": "Patients who subsequently developed ALCs < 500/mm^3 persisting ≥ 6 months at any time, %", "setting": "MS patients [1]; At least 1 ALC < 500/mm^3 (row r11) within the first 6 months", "result": "(10) %"},
      {"measurement": "Patients who subsequently developed ALCs < 500/mm^3 persisting ≥ 6 months at any time, %", "setting": "MS patients [1]; [10]", "result": "(51) %"},
      {"measurement": "Patients who subsequently developed ALCs < 500/mm^3 persisting ≥ 6 months at any time, n/N", "setting": "MS patients [1]; [10]", "result": "31/61"},
      {"measurement": "Patients who subsequently developed ALCs < 500/mm^3 persisting ≥ 6 months at any time, %", "setting": "MS patients [1]; [11]", "result": "(42) %"},
      {"measurement": "Patients who subsequently developed ALCs < 500/mm^3 persisting ≥ 6 months at any time, n/N", "setting": "MS patients [1]; [11]", "result": "10/24"},
      {"measurement": "Patients who subsequently developed ALCs < 500/mm^3 persisting ≥ 6 months at any time, n/N", "setting": "MS patients [1]; At least 1 ALC < 500/mm^3 within the first 6 months", "result": "38/251"},
      {"measurement": "Incidence of worst post-baseline ALC CTC grade 0, %", "setting": "MS patients [1]; Total DMF, n = 2513", "result": "(61) %"},
      {"measurement": "Incidence of worst post-baseline ALC CTC grade 1, %", "setting": "MS patients [1]; Total DMF, n = 2513", "result": "(9) %"},
      {"measurement": "Incidence of worst post-baseline ALC CTC grade 2, %", "setting": "MS patients [1]; Total DMF, n = 2513", "result": "(21) %"},
      {"measurement": "Incidence of worst post-baseline ALC CTC grade 3 or 4, %", "setting": "MS patients [1]; Total DMF, n = 2513", "result": "(7) %"},
      {"measurement": "Patients who experienced ALCs less than 500/mm^3 persisting for greater than or equal to 6 months, %", "setting": "MS patients [1]; among patients treated for ≥ 6 months (N=2,099)", "result": 2.2, "unit": "%"},
      {"measurement": "Patients in whom ALCs remained greater than or equal to LLN", "setting": "MS patients [1]; during the first 6 months", "result": 84, "unit": "%"},
      {"measurement": "Patients in whom ALCs remained greater than or equal to LLN", "setting": "MS patients [1]; during the first year", "result": 76, "unit": "%"},
      {"measurement": "Course of ALCs with continued therapy", "setting": "MS patients [1]; patients with ALCs < 500/mm^3 persisting ≥ 6 months", "result": "generally remained less than 500/mm^3"},
      {"measurement": "Decrease of mean ALCs during the first year of treatment", "setting": "MS patients [1]; then plateaued, remaining above LLN (910/mm^3) throughout the observation period", "result": "approximately 30%"},
      {"measurement": "Cases of PML", "setting": "patient with MS; MS patient in clinical trial, severe", "result": "a case of PML"},
      {"measurement": "Lymphocyte counts of the patient who developed PML", "setting": "patient with MS; 3.5 years duration", "result": "less than 0.5×10^9 /L"},
      {"measurement": "Association of lymphopenia with risk of infections, serious infections, opportunistic infections", "setting": "MS patients [2]; interim analysis of Phase 2b, DEFINE, CONFIRM, ENDORSE", "result": "not associated with an overall increased risk of infections or serious infections"},
      {"measurement": "Serious infections, worst post-baseline CTC grade 0, %", "setting": "MS patients [2]; [12]", "result": "(3) %"},
      {"measurement": "Serious infections, worst post-baseline CTC grade 1, %", "setting": "MS patients [2]; [12]", "result": "(5.5) %"},
      {"measurement": "Serious infections, worst post-baseline CTC grade 2, %", "setting": "MS patients [2]; [12]", "result": "(4) %"},
      {"measurement": "Serious infections, worst post-baseline CTC grade 3 or 4, %", "setting": "MS patients [2]; [12]", "result": "(3) %"},
      {"measurement": "Rate ratio (95% CI) for adjusted ARR for DMF versus placebo", "setting": "patients with RRMS [3]; CONFIRM, patients with treatment-associated lymphopenia", "result": "0.525 (0.365, 0.756)"},
      {"measurement": "Rate ratio (95% CI) for adjusted ARR for DMF versus placebo", "setting": "patients with RRMS [3]; CONFIRM, patients without lymphopenia", "result": "0.599 (0.429, 0.835)"},
      {"measurement": "Rate ratio (95% CI) for adjusted ARR for DMF versus placebo", "setting": "patients with RRMS [3]; DEFINE, patients with treatment-associated lymphopenia", "result": "0.424 (0.294, 0.611)"},
      {"measurement": "Rate ratio (95% CI) for adjusted ARR for DMF versus placebo", "setting": "patients with RRMS [3]; DEFINE, patients without lymphopenia", "result": "0.509 (0.381, 0.681)"},
      {"measurement": "Reduction in ARR at 2 years versus placebo, patients with versus without lymphopenia", "setting": "patients with RRMS [3]; DEFINE and CONFIRM", "result": "not substantially different"},
      {"measurement": "Clinical relapses, disability progression, lesion number and volume compared with placebo", "setting": "patients with RRMS [4]", "result": "significantly reduced clinical relapses, accumulation of disability progression, and lesion number and volume"}
    ]},
    {"compound": "OC(c1cc(C(F)(F)F)nc2c(C(F)(F)F)cccc12)C1CCCCN1", "note": "(centres unmarked) [Mefloquine]", "values": [
      {"measurement": "Effect on JCV replication", "setting": "JCV", "result": "block JCV replication without significant toxicity"}
    ]},
    {"compound": "CC(=O)Oc1ccccc1C(=O)O", "note": "[aspirin]", "values": [
      {"measurement": "Occurrence and severity of flushing", "setting": "healthy volunteer", "result": "reduce the occurrence and severity of flushing"}
    ]}
  ]
}
